# Laboratory results published in patent US20150031102A1, “METHODS AND COMPOSITIONS FOR ENHANCED PRODUCTION OF BUTANOL BY CLOSTRIDIA” (Butrolix LLC, priority 2012, published 2015).
# Test system: Clostridium acetobutylicum strain ATCC 824
# Assay: Sequential batch transfer in 24-well culture plates (butanol, residual glucose, butanol yield and productivity)
# Assay type: cell-based
# Conditions: after 96 hours of culture; for Residual glucose concentration: initial glucose 60 g/L; for Butanol: Experiment 1
# Protocol: Each well contained 1.5 mL of growth medium. Peptide was added to each well at the indicated concentration (0, 25, 50, and 100 nM). Every 24 hours fresh medium and peptide treatment were added to a new column of wells then 1.5 μL of the previous day culture was transferred to the new well. Wells were harvested for glucose and butanol analysis after 96 hours of growth. Transfers 1, 4, 7, 10, 13, 16, […].
# Briefly, Clostridium spores were germinated in a suitable growth medium for 18-24 hours then […] was transferred to 1.5 mL of fresh medium in each of four wells on a 24-well culture plate. Three of the wells had been treated with 25 nM, 50 nM and 100 nM of peptide, respectively while the fourth well was untreated. Thereafter, every 24 hours […] of each subculture was transferred to 1.5 mL of fresh medium that contained the same peptide treatment or no treatment. Transfers of successive subcultures were done for 24 days, and each subculture was grown for 96 hours before being harvested. Culture supernatants were recovered following centrifugation and were analyzed for butanol and residual glucose concentrations. Determination of optimum peptide treatment levels was based on a graphical comparison of the concentration of butanol in each of the four culture wells for sequential transfers 1, 4, 7, 10, 13, 16, 19, 22 and 24.
# Clostridium acetobutylicum strain ATCC 824 was used in all experiments and the growth medium used for sequential batch transfer, time course, and continuous culture experiments contained yeast extract, casamino acids, L-cysteine, L-asparagine, phosphate buffer, trace minerals, and 6% glucose. What are believed to be quorum-sensing peptides that were used in the experiments were chemically synthesized peptides SEQ ID NO: 143 (amino acid sequence: SYPGWSW) and SEQ ID NO: 144 (amino acid sequence: ILILISG). Routine growth of the bacteria as well as the sequential batch and time course experiments were conducted in a Form a Scientific Model 1029 anaerobic gas chamber at 32° C. Continuous cultures were performed at 32° C. using duplicate New Brunswick Scientific BioFlo 3000 apparati with a dilution rate of 0.01 volume per hour, 75 rpm agitation, and nitrogen gas sparging. Optical density of culture samples was measured at 600 nm in a Beckman DU 600 series spectrophotometer and glucose was analyzed using a YSI Model 2700 Select Biochemistry Analyzer with internal glucose calibration. Butanol concentrations were determined by measuring experimental and standard samples using a Varian Saturn 3 Gas Chromatograph/Mass Spectrometer and calculating butanol concentrations using standard curves.
# (§1) Sequential batch transfer experiments were carried out in 24-well culture plates that contained 1.5 mL of medium per well. Peptide was added to each well at the indicated concentrations of 0 nM (control), 25 nM, 50 nM, or 100 nM. Every 24 hours, fresh medium and peptide treatments were added to a new column of wells. Then, 1.5 uL of the previous day culture was transferred to the new well. Wells were harvested for glucose and butanol analysis after 96 hours of growth; transfers 1, 4, 7, 10, 13, 16, 19, 22, and 24 were analyzed. Two representative experiments are shown in Tables 30 and 31 and FIGS. 14 and 15.
# as §1, with “32” for “30”, “33” for “31”, “16” for “14”, “17.” for “15.”
# [1] = 25 nM peptide, transfer 1, Expt. 2 (repeat)
# [2] = 25 nM peptide, transfer 4, Expt. 2 (repeat)
# [3] = 25 nM peptide, transfer 7, Expt. 2 (repeat)
# [4] = 25 nM peptide, transfer 10, Expt. 2 (repeat)
# [5] = 25 nM peptide, transfer 13, Expt. 2 (repeat)
# [6] = 25 nM peptide, transfer 16, Expt. 2 (repeat)
# [7] = 25 nM peptide, transfer 19, Expt. 2 (repeat)
# [8] = 25 nM peptide, transfer 22, Expt. 2 (repeat)
# [9] = 25 nM peptide, transfer 24, Expt. 2 (repeat)
# [10] = 25 nM, transfer 1, first experiment
# [11] = 25 nM, transfer 4, first experiment
# [12] = 25 nM, transfer 7, first experiment
# [13] = 25 nM, transfer 10, first experiment
# [14] = 25 nM, transfer 13, first experiment
# [15] = 25 nM, transfer 16, first experiment
# [16] = 25 nM, transfer 19, first experiment
# [17] = 25 nM, transfer 22, first experiment
# [18] = 25 nM, transfer 24, first experiment
# [19] = 50 nM peptide, transfer 1, Expt. 2 (repeat)
# [20] = 50 nM peptide, transfer 4, Expt. 2 (repeat)
# [21] = 50 nM peptide, transfer 7, Expt. 2 (repeat)
# [22] = 50 nM peptide, transfer 10, Expt. 2 (repeat)
# [23] = 50 nM peptide, transfer 13, Expt. 2 (repeat)
# [24] = 50 nM peptide, transfer 16, Expt. 2 (repeat)
# [25] = 50 nM peptide, transfer 19, Expt. 2 (repeat)
# [26] = 50 nM peptide, transfer 22, Expt. 2 (repeat)
# [27] = 50 nM peptide, transfer 24, Expt. 2 (repeat)
# [28] = 50 nM, transfer 1, first experiment
# [29] = 50 nM, transfer 4, first experiment
# [30] = 50 nM, transfer 7, first experiment
substance,measurement,setting,value
SYPGWSW [peptide SEQ ID NO: 143],Butanol concentration,[1],0.75 g/L
same,Butanol productivity,[1],0.01 g butanol/L-h
same,Butanol yield,[1],0.01 g butanol/g/glucose
same,Residual glucose concentration,[1],49.0 g/L
same,Butanol concentration,[2],1.40 g/L
same,Butanol productivity,[2],0.01 g butanol/L-h
same,Butanol yield,[2],0.02 g butanol/g/glucose
same,Residual glucose concentration,[2],43.5 g/L
same,Butanol concentration,[3],1.83 g/L
same,Butanol productivity,[3],0.02 g butanol/L-h
same,Butanol yield,[3],0.03 g butanol/g/glucose
same,Residual glucose concentration,[3],48.9 g/L
same,Butanol concentration,[4],2.93 g/L
same,Butanol productivity,[4],0.03 g butanol/L-h
same,Butanol yield,[4],0.05 g butanol/g/glucose
same,Residual glucose concentration,[4],43.9 g/L
same,Butanol concentration,[5],2.89 g/L
same,Butanol productivity,[5],0.03 g butanol/L-h
same,Butanol yield,[5],0.05 g butanol/g/glucose
same,Residual glucose concentration,[5],44.7 g/L
same,Butanol concentration,[6],6.32 g/L
same,Butanol productivity,[6],0.07 g butanol/L-h
same,Butanol yield,[6],0.11 g butanol/g/glucose
same,Residual glucose concentration,[6],39.1 g/L
same,Butanol concentration,[7],2.65 g/L
same,Butanol productivity,[7],0.03 g butanol/L-h
same,Butanol yield,[7],0.05 g butanol/g/glucose
same,Residual glucose concentration,[7],44.1 g/L
same,Butanol concentration,[8],6.86 g/L
same,Butanol productivity,[8],0.07 g butanol/L-h
same,Butanol yield,[8],0.12 g butanol/g/glucose
same,Residual glucose concentration,[8],0.1 g/L
same,Butanol concentration,[9],5.33 g/L
same,Butanol productivity,[9],0.06 g butanol/L-h
same,Butanol yield,[9],0.09 g butanol/g/glucose
same,Residual glucose concentration,[9],16.0 g/L
same,Butanol,"25 nM, transfer 1",1.21 g/L
same,Butanol productivity,[10],0.01 g butanol/L-h
same,Butanol yield,[10],0.02 g butanol/g/glucose
same,Residual glucose concentration,[10],45.3 g/L
same,Butanol,"25 nM, transfer 4",11.87 g/L
same,Butanol productivity,[11],0.12 g butanol/L-h
same,Butanol yield,[11],0.20 g butanol/g/glucose
same,Residual glucose concentration,[11],0.1 g/L
same,Butanol,"25 nM, transfer 7",9.09 g/L
same,Butanol productivity,[12],0.09 g butanol/L-h
same,Butanol yield,[12],0.15 g butanol/g/glucose
same,Residual glucose concentration,[12],0.1 g/L
same,Butanol,"25 nM, transfer 10",12.83 g/L
same,Butanol productivity,[13],0.13 g butanol/L-h
same,Butanol yield,[13],0.22 g butanol/g/glucose
same,Residual glucose concentration,[13],0.1 g/L
same,Butanol,"25 nM, transfer 13",9.97 g/L
same,Butanol productivity,[14],0.10 g butanol/L-h
same,Butanol yield,[14],0.17 g butanol/g/glucose
same,Residual glucose concentration,[14],0.1 g/L
same,Butanol,"25 nM, transfer 16",11.66 g/L
same,Butanol productivity,[15],0.12 g butanol/L-h
same,Butanol yield,[15],0.20 g butanol/g/glucose
same,Residual glucose concentration,[15],0.1 g/L
same,Butanol,"25 nM, transfer 19",4.37 g/L
same,Butanol productivity,[16],0.05 g butanol/L-h
same,Butanol yield,[16],0.07 g butanol/g/glucose
same,Residual glucose concentration,[16],48.1 g/L
same,Butanol,"25 nM, transfer 22",7.12 g/L
same,Butanol productivity,[17],0.07 g butanol/L-h
same,Butanol yield,[17],0.12 g butanol/g/glucose
same,Residual glucose concentration,[17],45.7 g/L
same,Butanol,"25 nM, transfer 24",5.06 g/L
same,Butanol productivity,[18],0.05 g butanol/L-h
same,Butanol yield,[18],0.08 g butanol/g/glucose
same,Residual glucose concentration,[18],48.5 g/L
same,Butanol concentration,[19],0.72 g/L
same,Butanol productivity,[19],0.01 g butanol/L-h
same,Butanol yield,[19],0.01 g butanol/g/glucose
same,Residual glucose concentration,[19],48.9 g/L
same,Butanol concentration,[20],1.41 g/L
same,Butanol productivity,[20],0.01 g butanol/L-h
same,Butanol yield,[20],0.02 g butanol/g/glucose
same,Residual glucose concentration,[20],43.2 g/L
same,Butanol concentration,[21],3.09 g/L
same,Butanol productivity,[21],0.03 g butanol/L-h
same,Butanol yield,[21],0.05 g butanol/g/glucose
same,Residual glucose concentration,[21],41.3 g/L
same,Butanol concentration,[22],7.69 g/L
same,Butanol productivity,[22],0.08 g butanol/L-h
same,Butanol yield,[22],0.13 g butanol/g/glucose
same,Residual glucose concentration,[22],0.5 g/L
same,Butanol concentration,[23],8.72 g/L
same,Butanol productivity,[23],0.09 g butanol/L-h
same,Butanol yield,[23],0.15 g butanol/g/glucose
same,Residual glucose concentration,[23],0.1 g/L
same,Butanol concentration,[24],10.70 g/L
same,Butanol productivity,[24],0.11 g butanol/L-h
same,Butanol yield,[24],0.18 g butanol/g/glucose
same,Residual glucose concentration,[24],0.1 g/L
same,Butanol concentration,[25],5.75 g/L
same,Butanol productivity,[25],0.06 g butanol/L-h
same,Butanol yield,[25],0.10 g butanol/g/glucose
same,Residual glucose concentration,[25],0.1 g/L
same,Butanol concentration,[26],4.54 g/L
same,Butanol productivity,[26],0.05 g butanol/L-h
same,Butanol yield,[26],0.08 g butanol/g/glucose
same,Residual glucose concentration,[26],0.1 g/L
same,Butanol concentration,[27],4.78 g/L
same,Butanol productivity,[27],0.05 g butanol/L-h
same,Butanol yield,[27],0.08 g butanol/g/glucose
same,Residual glucose concentration,[27],0.1 g/L
same,Butanol,"50 nM, transfer 1",1.12 g/L
same,Butanol productivity,[28],0.01 g butanol/L-h
same,Butanol yield,[28],0.02 g butanol/g/glucose
same,Residual glucose concentration,[28],45.5 g/L
same,Butanol,"50 nM, transfer 4",11.53 g/L
same,Butanol productivity,[29],0.12 g butanol/L-h
same,Butanol yield,[29],0.19 g butanol/g/glucose
same,Residual glucose concentration,[29],0.1 g/L
same,Butanol,"50 nM, transfer 7",9.36 g/L
same,Butanol productivity,[30],0.10 g butanol/L-h
same,Butanol yield,[30],0.16 g butanol/g/glucose
same,Residual glucose concentration,[30],0.1 g/L
same,Butanol,"50 nM, transfer 10",13.66 g/L
